Where two headings read alike, the source gives them in different places.
What was measured:
Assay type in all cases: cell-based
[1] = system: HGC27 (Human Gastric Cancer Cell); experiment: Bioactivity assay for HGC27 cell growth inhibition (CellTiter-Glo); details: read-out: HGC27 CTG IC50
Experimental: This detection method is used to evaluate the biological activity of the compounds of the present disclosure at the cellular level.
(§1) HGC27 cells (purchased from the Chinese Academy of Sciences) were harvested, resuspended in complete medium and adjusted to a cell density of 0.2×10^6 cells per ml. The cell suspension was added to a 96-well plate at a volume of 100 μL per well and cultured overnight in a 37° C., 5% CO2 incubator. Prepare the test compound and add it to the cell plate so that the highest concentration of the compound is 10 μM. Set 8 concentration points according to 3-fold dilution. At the same time, 100% inhibition control wells were set, that is, wells with no cells but only an equal volume of complete culture medium; and 0% inhibition control wells, that is, wells with cells added with 0.1% DMSO. The cell plate was cultured at 37° C. and 5% CO2 for 24 hours. Remove the cell culture plate and add 25 μl CellTiter-Glo® Luminescent Cell Viability Reagent (promega cat #G7573) to each well. Incubate in the dark for 10 minutes and then transfer 100 μL to a white plate and use Molecular Devices SpectraMax i3 to detect chemiluminescence. The inhibition rate was calculated using the following formula for data processing: compound inhibition rate=(0% inhibition control well signal−compound treatment well signal)/(0% inhibition control well signal−100% inhibition control well signal)*100%. The calculated data were fitted with four parameters using GraphPad Prism software and the corresponding IC50 was calculated.

[2] = system: NCI-N87 (Human Gastric Cancer Cell); experiment: Bioactivity detection of NCI-N87 cell growth inhibition (CellTiter-Glo); details: NCI-N87 cells, 72 hours, highest concentration 10 μM, read-out: N87 CTG IC50
Experimental: This detection method is used to evaluate the biological activity of the compounds described in this disclosure at the cellular level.
as §1, with “NCI-N87” for “HGC27”, “0.1×10^6” for “0.2×10^6”, “72” for “24”, “CellTiter-Glo” for “CellTiter-Glo®”, “signal)[…].” for “signal)*100%.”

Cyclin K (CCNK) = target: T1, Cyclin K (CCNK) (Homo sapiens, UniProt O75909+Q9NYV4); experiment: Western blot analysis of Cyclin K (CCNK) degradation in HEK293 cells; details: 6 h, different concentrations, compared with the control (FIG. 1)
T1 construct: host or cells: HEK293
Experimental: HEK293 cells (ATCC, cat #CRL-1573) were harvested and the cell density was adjusted to 1×10^6 cells per ml. 1 ml of cell suspension was plated into each well of a 6-well plate and cultured overnight. The compound stock solution was taken and diluted with DMSO to the appropriate concentration. The diluted compounds were added to the cell wells at a ratio of 1:1000 using culture medium to ensure that the DMSO concentration in each well was 0.1%. Negative control wells were also set up, which contained complete medium containing 0.1% DMSO. After treatment with the compounds at the concentrations indicated in the figures and at different times, total cell protein was extracted using RIPA cell lysis buffer (Beyotime, cat #P0013B) containing PMSF. After protein quantification using the BCA protein quantification kit (Thermo Fisher, cat #A53225), each sample was loaded with 40 μg for subsequent SDS-PAGE and western blot experiments. The specific conditions are as follows: after running the gel at a constant voltage of 120 V for 90 minutes, transfer the membrane at a constant current of 320 mA for 60 minutes. Incubate the antibodies according to the recommended dilution ratio and incubation time. The antibody information used in the experiment is as follows: Anti-GAPDH antibody (abcam, cat #ab9485), Anti-Cyclin K antibody (abcam, cat #ab85854), Goat anti-Rabbit IgG (H+L) Cross-Adsorbed Secondary Antibody, HRP (invitrogen, cat #G-21234). ECL luminescent solution (Thermo Fisher, cat #32209) was used for color development. The final results were analyzed using a gel imaging system.
According to the above detection method, some compounds described in the present disclosure were evaluated.

[3] = HGC-27, HGC27 cells, 24 hours, CellTiter-Glo, highest concentration 10 μM

T1 sequence (O75909 whole entry): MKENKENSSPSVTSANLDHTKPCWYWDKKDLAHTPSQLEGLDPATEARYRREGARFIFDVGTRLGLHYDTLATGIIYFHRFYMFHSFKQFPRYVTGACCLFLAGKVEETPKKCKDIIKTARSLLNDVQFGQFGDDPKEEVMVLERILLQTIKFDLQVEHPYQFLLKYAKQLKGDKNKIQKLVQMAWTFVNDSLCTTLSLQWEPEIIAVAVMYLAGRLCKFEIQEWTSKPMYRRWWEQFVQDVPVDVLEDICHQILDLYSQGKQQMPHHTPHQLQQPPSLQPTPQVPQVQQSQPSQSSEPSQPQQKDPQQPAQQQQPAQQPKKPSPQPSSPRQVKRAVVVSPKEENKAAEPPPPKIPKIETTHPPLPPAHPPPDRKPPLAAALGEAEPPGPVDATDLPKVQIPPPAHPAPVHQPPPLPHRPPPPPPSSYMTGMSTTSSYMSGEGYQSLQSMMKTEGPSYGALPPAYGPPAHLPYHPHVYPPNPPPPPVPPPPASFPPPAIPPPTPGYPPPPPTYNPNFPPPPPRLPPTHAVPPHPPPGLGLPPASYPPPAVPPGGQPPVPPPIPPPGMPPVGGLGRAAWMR
T1 sequence (Q9NYV4 whole entry): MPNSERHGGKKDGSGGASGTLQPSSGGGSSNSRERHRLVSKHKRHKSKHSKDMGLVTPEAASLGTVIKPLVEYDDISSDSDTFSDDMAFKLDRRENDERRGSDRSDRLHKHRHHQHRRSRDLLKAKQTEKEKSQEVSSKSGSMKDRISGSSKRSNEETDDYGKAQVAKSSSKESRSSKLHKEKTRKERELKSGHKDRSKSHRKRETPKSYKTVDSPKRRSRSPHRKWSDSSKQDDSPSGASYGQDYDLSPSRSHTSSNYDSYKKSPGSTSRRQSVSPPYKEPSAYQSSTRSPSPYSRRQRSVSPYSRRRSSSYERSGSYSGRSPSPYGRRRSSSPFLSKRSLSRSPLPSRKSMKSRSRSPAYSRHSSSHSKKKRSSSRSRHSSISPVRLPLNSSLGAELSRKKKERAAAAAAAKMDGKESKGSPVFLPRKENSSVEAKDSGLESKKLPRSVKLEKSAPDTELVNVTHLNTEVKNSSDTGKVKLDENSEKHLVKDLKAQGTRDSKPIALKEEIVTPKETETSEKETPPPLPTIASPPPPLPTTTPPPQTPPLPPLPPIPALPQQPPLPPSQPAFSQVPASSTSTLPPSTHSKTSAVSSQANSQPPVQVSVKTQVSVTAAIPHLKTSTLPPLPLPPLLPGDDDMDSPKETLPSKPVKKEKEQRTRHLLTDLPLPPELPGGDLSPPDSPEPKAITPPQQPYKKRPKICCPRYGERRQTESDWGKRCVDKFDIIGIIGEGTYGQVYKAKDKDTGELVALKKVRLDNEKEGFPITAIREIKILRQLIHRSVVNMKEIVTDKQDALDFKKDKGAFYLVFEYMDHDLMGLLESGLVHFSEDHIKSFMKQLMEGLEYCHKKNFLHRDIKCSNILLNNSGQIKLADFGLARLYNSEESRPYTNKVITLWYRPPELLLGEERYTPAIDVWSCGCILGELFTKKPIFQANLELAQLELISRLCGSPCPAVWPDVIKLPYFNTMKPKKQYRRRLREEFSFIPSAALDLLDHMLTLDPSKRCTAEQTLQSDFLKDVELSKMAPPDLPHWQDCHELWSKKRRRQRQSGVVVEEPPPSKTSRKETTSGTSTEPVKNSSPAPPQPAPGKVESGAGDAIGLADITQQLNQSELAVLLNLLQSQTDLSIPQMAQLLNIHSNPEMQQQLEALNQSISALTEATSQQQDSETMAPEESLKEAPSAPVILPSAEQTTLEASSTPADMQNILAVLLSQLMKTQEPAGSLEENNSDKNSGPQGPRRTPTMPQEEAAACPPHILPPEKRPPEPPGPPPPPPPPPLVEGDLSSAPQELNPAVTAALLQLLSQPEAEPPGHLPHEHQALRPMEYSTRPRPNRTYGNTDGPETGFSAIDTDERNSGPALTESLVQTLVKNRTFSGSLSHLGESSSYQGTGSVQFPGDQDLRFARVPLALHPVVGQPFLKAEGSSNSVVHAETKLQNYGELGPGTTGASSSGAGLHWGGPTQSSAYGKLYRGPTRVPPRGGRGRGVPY

Row | IC50 [1, 3] [nM] | IC50 [2] [nM] | Compound | degradation of Cyclin K (western blot) (Cyclin K (CCNK)) | IC50 ([1]; HGC-27, 24 h) [nM]
1 | 25 | 7.5 | C[C@@H](O)[C@@H](C)Oc1nc(NCc2ccc3c(c2)[nH]c2c(CO)ccnc23)ncc1C(F)(F)F [Compound 12] | significantly induce the degradation of Cyclin K | 
2 | 68 | 3.1 | CC[C@@H](Nc1nc(NCc2ccc3c(c2)[nH]c2c(CO)ccnc23)ncc1C(F)(F)F)C(N)=O [Compound 17] | significantly induce the degradation of Cyclin K | 
3 | 8 | < 1 | C[C@@H](O)[C@@H](C)Nc1nc(NCc2ccc3c(c2)[nH]c2c(CO)ccnc23)ncc1C(F)(F)F [Compound 18] | significantly induce the degradation of Cyclin K | 
4 | 128 | 75 | CO[C@@H](C)[C@@H](Nc1nc(NCc2ccc3c(c2)[nH]c2c(CO)ccnc23)ncc1C#N)C(N)=O [Compound 74] |  | 
5 | 38 | 22 | OCc1ccnc2c1[nH]c1cc(CNc3ncc(C(F)(F)F)c(N[C@@H]4CNCC[C@@H]4O)n3)ccc12 [Compound 75] |  | 
6 | 151 | 61 | OCc1ccnc2c1[nH]c1cc(CNc3ncc(C(F)(F)F)c(N[C@@H]4CCNC[C@@H]4O)n3)ccc12 [Compound 77] |  | 
7 | 244 | 120 | OCc1ccnc2c1[nH]c1cc(CNc3ncc(C(F)(F)F)c(N[C@@H]4CNC[C@@H]4O)n3)ccc12 [Compound 78] |  | 
8 | 38 | 9 | CO[C@@H](C)[C@@H](Nc1nc(NCc2ccc3c(c2)nn2c(CO)ccnc32)ncc1C(F)(F)F)C(N)=O [Compound 79] |  | 
9 | 41 | 5.4 | OCc1ccnc2c3ccc(CNc4ncc(C(F)(F)F)c(N[C@@H]5CNCC[C@@H]5O)n4)cc3nn12 [Compound 80] |  | 
10 | 28 | 6 | CO[C@@H](C)[C@@H](Nc1nc(NCc2ccc3c(c2)[nH]c2c(CO)ccnc23)ncc1C(F)(F)F)C(N)=O [Compound 82] |  | 
11 | 8 | 8 | Cc1ccnc2c1[nH]c1cc(CNc3ncc(C(F)(F)F)c(N[C@@H]4CNCC[C@@H]4O)n3)ccc12 [Compound 83] |  | 
12 | 409 | 85 | CC[C@@H](Oc1nc(NCc2ccc3c(c2)[nH]c2c(CN)ccnc23)ncc1C(F)(F)F)C(N)=O [Compound 84] |  | 
13 | 6 | 4 | N#Cc1ccnc2c1[nH]c1cc(CNc3ncc(C(F)(F)F)c(N[C@@H]4CNC[C@@H]4O)n3)ccc12 [Compound 86] |  | 
14 | 12 | 12 | N#Cc1ccnc2c1[nH]c1cc(CNc3ncc(C(F)(F)F)c(N[C@@H]4CN(C(=O)CN)CC[C@@H]4O)n3)ccc12 [Compound 87] |  | 
15 | 2 | 2 | CN1CC[C@H](O)[C@H](Nc2nc(NCc3ccc4c(c3)[nH]c3c(C#N)ccnc34)ncc2C(F)(F)F)C1 [Compound 88] |  | 
16 | 2 | 2.9 | N#Cc1ccnc2c1[nH]c1cc(CNc3ncc(C(F)(F)F)c(N[C@@H]4CCNC[C@@H]4O)n3)ccc12 [Compound 89] |  | 
17 | 4.9 | 6 | C[C@@H](N)[C@@H](C)Oc1nc(NCc2ccc3c(c2)[nH]c2c(CO)ccnc23)ncc1C(F)(F)F [Compound 90] |  | 
18 | 14 | 5.3 | N#Cc1ccnc2c1[nH]c1cc(CNc3ncc(C(F)(F)F)c(O[C@@H]4CNC[C@@H]4O)n3)ccc12 [Compound 91] |  | 
19 | 17 | 4.1 | Cn1c2cc(CNc3ncc(C(F)(F)F)c(N[C@@H]4CNCC[C@@H]4O)n3)ccc2c2nccc(C#N)c21 [Compound 93] |  | 
20 | 9 | 3.7 | N#Cc1ccnc2c1[nH]c1cc(CNc3ncc(C(F)(F)F)c(N[C@@H]4CN(CCO)CC[C@@H]4O)n3)ccc12 [Compound 94] |  | 
21 | 43 | 6.6 | COc1ccnc2c1[nH]c1cc(CNc3ncc(C(F)(F)F)c(N[C@@H](C(N)=O)[C@H](C)OC)n3)ccc12 [Compound 97] |  | 
22 | 7 | 2 | C[C@@H](O)[C@@H](C)Nc1nc(NCc2ccc3c(c2)[nH]c2c(C#N)ccnc23)ncc1C(F)(F)F [Compound 98] |  | 

Row | Compound | IC50 [1, 3] [nM] | IC50 [2] [nM] | degradation of Cyclin K (western blot) (Cyclin K (CCNK)) | IC50 ([1]; HGC-27, 24 h) [nM]
23 | N#Cc1ccnc2c1[nH]c1cc(CNc3ncc(C(F)(F)F)c(N[C@@H]4CNCC[C@@H]4O)n3)ccc12 [Compound 81] |  | 0.8 |  | 2
24 | N#Cc1ccnc2c1[nH]c1cc(CNc3ncc(C(F)(F)F)c(N[C@@H]4CNCC[C@H]4O)n3)ccc12 [Compound 85] |  | 8.5 |  | 17
25 | C[C@@H](O)[C@H](Nc1nc(NCc2ccc3c(c2)[nH]c2c(C#N)ccnc23)ncc1C(F)(F)F)C(N)=O [Compound 95] |  | 8 |  | 3
